Experimental data: patent US4393210A, “1(2H)-Isoquinolone compounds and acid addition salts thereof” (Seiyaku Co., Ltd., priority 1980, dated 1983)
Structures can show the parent of a compound that is named as a salt.

Tests used:
[1] = system: ulcer generation caused by water-dipping restriction stress; test: Anti-ulcer activity, stress ulcer (water-dipping restriction stress); type: in vivo, Wister male rats; conditions: for Percent Inhibition (stress ulcer) / Ulcerous Index: oral; for Ulcerous Index: n=6, control 75.8
Method: The test compound was administered orally to Wister male rats (body weight, 200 to 230 g) and then the rats were tied up with a steel wire and dipped in water at 23° C. in a tank to the level of the xiphisternum of rats. After allowing the rats to stand for 7 hours in water, the rats were sacrificed and the stomach was extracted. 10 ml of a 1% formalin solution was injected into the stomach cavity and the stomach was dipped in a 1% formalin solution for 15 minutes to semi-harden the stomach. The stomach was excised along the greater curvature thereof and the ulcer generated in the portion of corpus ventriculi was observed.

gastric secretion = test: Gastric secretion inhibitory activity, pylorus ligation; type: in vivo, Wister male rats; conditions: for pH Value (gastric juice) / Amount of Gastric Juice / Amount of Output Secretion: 4 hours, n=10; for pH Value (gastric juice): control 1.71 ± 0.11; for Amount of Gastric Juice: control 2.51 ± 0.32; for Amount of Gastric Juice / Amount of Output Secretion: **p < 0.01; for Amount of Output Secretion: control 184 ± 27.2; for effect on volume of gastric juice, acid secretion and pH value: Table 2, 100 mg/kg
Method: The pylorus of Wister male rats (body weight, 180 to 200 g) fasted for 24 hours was ligated under ether anesthesia and, immediately thereafter, the test compound was administered into the duodenum. Four hours after the administration, the stomach was extracted and gastric juice was collected and centrifuged at 3,000 r.p.m. for 15 minutes. The volume of gastric juice, the pH value and the amount of output secretion were then determined with respect to the supernatant.

Acute toxicity = conditions: mouse, in vivo; mice fasted overnight, observed for 7 days; route not stated
Method: The test compound was administered to ddy male mice (body weight, 20 to 25 g) fasted overnight before administration.

[2] = system: pain reaction induced by acetic acid injection; test: Analgesic activity, acetic acid stretching method (Koster et al); type: in vivo, ddy male mice; conditions: oral; for Number of Stretching: n=8, control 36.5 ± 6.5
Method: According to the acetic acid stretching method described by Koster et al [Fed. Pro., 18, 412 (1959)], Compound A was administered orally to ddy male mice (body weight, 20 to 25 g) fasted overnight before test. One hour after administration of Compound A, a 0.6% aqueous acetic acid solution was administered intraperitoneally at a dose of 0.35 ml per mouse and the stretching of the mice was observed 10 minutes after the administration of the acetic acid solution for a period of 10 minutes, and the percent inhibition was calculated.

[3] = system: histamine-induced contraction, guinea pig ileum; test: Anti-histamine activity, histamine-induced contraction of extracted ileum (Magnus tube); conditions: 31° C.; for shift of histamine-induced contraction curve: treatment 30 seconds before inducing contraction; for anti-histamine activity: guinea pig ileum
Method: (§1) The ileum of guinea pig (body weight, 300 to 400 g) was extracted and suspended in a Magnus tobe containing Tyrode's solution (saturated with oxygen) at 31° C. and the inhibitory activity of the test compounds on the contraction induced by administration of histamine or acetylchloline was determined. The treatment with the test compounds was conducted 30 seconds before inducing the contraction.

[4] = system: contraction induced by acetylchloline, ileum of guinea pig; test: Anti-cholinergic activity, acetylcholine-induced contraction of extracted ileum (Magnus tube); conditions: 31° C.
Method: as §1

[5] = system: indomethacin-induced ulcer; test: Anti-ulcer activity, indomethacin-induced ulcer; type: in vivo, Wister male rats; conditions: for Percent Inhibition (indomethacin ulcer) / Ulcerous Index: oral; for Ulcerous Index: control 15.4, indomethacin 20 mg/kg s.c.
Method: A suspension of indomechacin in 0.25% CMC was administered subcutaneously at a dose of 20 mg/kg to Wister male rats (body weight, 125 to 150 g) fasted for 24 hours. The test compound was administered orally 30 minutes before the administration of indomethacin. Seven hours after the administration of indomethacin, the rats were sacrificed by dislocation of neck, and the stomach was extracted. 7.5 ml of 1% formalin solution was injected into the stomach cavity, and the stomack was hardened. The linear-type ulcer generated in the mucous membrane of the stomach was then observed.

[6] = system: decrease in body temperature induced by administration of reserpine; test: Anti-reserpine (anti-depression) activity, rectal temperature; type: in vivo, ddy male mice; conditions: oral, 50 and 100 mg/kg; reserpine 2 mg/kg s.c. twice
Method: Reserpine was administered subcutaneously to ddy male mice (body weight, 25 to 30 g) at a dose of 2 mg/kg and, after fasting for 18 hours, reserpine was again administered subcutaneously at a dose of 2 mg/kg. Five hours after the second administration of reserpine, the mice which indicated a constant decrease in body temperature were selected and administered orally with the test compound (Compound C), followed by measuring the rectal temperature of the mice at one hour intervals.
In this experiment, Imipramine (10,11-dihydro-N,N-dimethyl-5H-dibenz[b,f]azepine-5-propanamine) and Amitriptyline [3-(10,11-dihydro-5H-dibenzo[a,d]-cyclohepten-5-ylidene)-N,N-dimethyl-1-propanamine] were used as typical examples of known compounds for comparison and the results obtained with these compounds are also shown in FIG. 1(a).

[7] = 100 mg/kg into the duodenum, *p < 0.05

Compound: CN1[C@@H]2CC[C@H]1C[C@@H](OC(=O)C(CO)c1ccccc1)C2 (stereo partly drawn) [Atropine, reference compound]
- Percent Inhibition (stress ulcer) ([1]; 5 mg/kg): 93.0%
- Ulcerous Index ([1]; 5 mg/kg): 5.3 mm
- pH Value (gastric juice) (gastric secretion; 5 mg/kg into the duodenum): 2.22 ± 0.25
- Amount of Gastric Juice (gastric secretion; 5 mg/kg into the duodenum): 0.90 ± 0.09 mL
- Amount of Output Secretion (gastric secretion; 5 mg/kg into the duodenum): 57 ± 6.0 μ Eq.

Compound: CN(C)CCCn1cc(-c2ccccc2)c2ccccc2c1=O [Compound A, 2-(3-N,N-dimethylaminopropyl)-4-phenyl-1(2H)-isoquinolone tartrate]
- LD50 at 168 h (Acute toxicity): 662 mg/kg
- inhibition of ulcer generation caused by water-dipping restriction stress ([1]; dose of 25, 50 and 100 mg): inhibits the ulcer generation caused by water-dipping restriction stress
- Percent Inhibition (stress ulcer) ([1]; 25 mg/kg): 23.5%
- Ulcerous Index ([1]; 25 mg/kg): 58.0 mm
- Percent Inhibition (stress ulcer) ([1]; 50 mg/kg): 36.4%
- Ulcerous Index ([1]; 50 mg/kg): 48.2 mm
- Percent Inhibition (stress ulcer) ([1]; 100 mg/kg): 66.0%
- Ulcerous Index ([1]; 100 mg/kg): 25.3 mm
- Number of Stretching ([2]; 25 mg/kg): 33.8 ± 8.2
- Percent Inhibition (stretching) ([2]; 50 mg/kg): 53.7%
- Number of Stretching ([2]; 50 mg/kg, *p < 0.05): 16.9 ± 4.8
- Percent Inhibition (stretching) ([2]; 100 mg/kg): 72.6%
- Number of Stretching ([2]; 100 mg/kg, **p < 0.01): 10.0 ± 2.8
- inhibition of the pain reaction induced by acetic acid injection ([2]; 50 and 100 mg/kg): inhibited the pain reaction induced by acetic acid injection
- pH Value (gastric juice) (gastric secretion; [7]): 3.06 ± 0.44
- Amount of Gastric Juice (gastric secretion; 100 mg/kg into the duodenum): 0.53 ± 0.12 mL
- Amount of Output Secretion (gastric secretion; 100 mg/kg into the duodenum): 22 ± 5.9 μ Eq.
- effect on volume of gastric juice, acid secretion and pH value (gastric secretion): reduce the volume of gastric juice and the acid secretion and increase the pH value
- shift of histamine-induced contraction curve [3]: shift the hitamine-induced contraction curve determined in guinea pig ileum to the right direction on the figures in parallel
- anti-histamine activity [3]: possess a specific anti-histamine activity
- anti-cholinergic activity [4]: non-specific anti-cholinergic activity

Compound: CN(C)CCn1cc(-c2ccccc2)c2ccccc2c1=O [Compound B, 2-(2-N,N-dimethylaminoethyl)-4-phenyl-1(2H)-isoquinolone hydrochloride]
- LD50 at 168 h (Acute toxicity): 195 mg/kg
- inhibition of indomethacin-induced ulcer ([5]; 50 mg/kg): inhibit the indomethacin-induced ulcer
- Percent Inhibition (indomethacin ulcer) ([5]; 50 mg/kg): 61.0%
- Ulcerous Index ([5]; 50 mg/kg, n=8): 6.0 mm
- shift of histamine-induced contraction curve [3]: shift the hitamine-induced contraction curve determined in guinea pig ileum to the right direction on the figures in parallel
- anti-histamine activity [3]: possess a specific anti-histamine activity
- anti-cholinergic activity [4]: non-specific anti-cholinergic activity

Compound: CN(C)CCCn1cc(C#N)c2ccccc2c1=O [Compound C, 4-cyano-2-(3-N,N-dimethylaminopropyl)-1(2H)-isoquinolone tartrate 1/2 hydrate]
- LD50 at 168 h (Acute toxicity): 699 mg/kg
- pH Value (gastric juice) (gastric secretion; [7]): 1.88 ± 0.10
- Amount of Gastric Juice (gastric secretion; 100 mg/kg into the duodenum): 1.85 ± 0.35 mL
- Amount of Output Secretion (gastric secretion; 100 mg/kg into the duodenum): 72 ± 5.3 μ Eq.
- effect on volume of gastric juice, acid secretion and pH value (gastric secretion): reduce the volume of gastric juice and the acid secretion and increase the pH value
- rectal temperature decreased by pretreatment with reserpine [6]: increases at a dose of 50 and 100 mg/kg significantly the rectal temperature
- shift of histamine-induced contraction curve [3]: shift the hitamine-induced contraction curve determined in guinea pig ileum to the right direction on the figures in parallel
- anti-histamine activity [3]: possess a specific anti-histamine activity

Compound: CC(Cn1cc(-c2ccccc2)c2ccccc2c1=O)N(C)C (stereo not drawn) [Compound D, 2-(2-N,N-dimethylaminopropyl)-4-phenyl-1(2H)-isoquinolone maleate]
- LD50 at 168 h (Acute toxicity): 505 mg/kg
- inhibition of indomethacin-induced ulcer ([5]; 50 mg/kg): inhibit the indomethacin-induced ulcer
- Percent Inhibition (indomethacin ulcer) ([5]; 50 mg/kg): 73.0%
- Ulcerous Index ([5]; 50 mg/kg, n=8): 4.1 mm

Compound: CCN1CCCC1CNC(=O)c1cc(S(N)(=O)=O)ccc1OC (stereo not drawn) [Sulpiride, 5(aminosulfonyl)-N--(1ethyl-2-pyrrolidinyl)-methyl 2-methoxybenzamide, reference compound]
- Ulcerous Index ([1]; 100 mg/kg): 71.0 mm

Compound: basic aluminum sucrose sulfate [Sucralfate, reference compound]
- Percent Inhibition (indomethacin ulcer) ([5]; 300 mg/kg): 81.1%
- Ulcerous Index ([5]; 300 mg/kg): 2.9 mm
